In US11926614B2, “1,2,4-triazole derivatives as tankyrase inhibitors” (priority 2018, dated 2024):
pIC50: −log10 of the molar value. Like-named read-outs stand apart in the source and are kept apart here.

What was measured:
[1] = biological target: TNKS2 (Homo sapiens (Human), UniProt Q9H2K2); test: Biochemical IC50 TNKS2
From the text: (§1) XLfit (idbs) was used to determine the IC50-values in inhibition experiments. The following formula was chosen to fit the data points (Langmuir Binding Isotherm): fit=((A+(B*x))+4(C−B)*(1−exp((−1*D)*x)))/D)), res=(y−fit)

[2] = tested on: HEK293; test: Cellular IC50 HEK293; format: cell-based
From the text: as §1

[3] = read-out: Biochemical IC50 TNKS2
[4] = Homo sapiens, HEK293, HEK293; read-out: Cellular IC50 HEK293
[5] = Homo sapiens, HEK293, read-out: Cellular IC50 HEK293

TNKS2, sequence (Q9H2K2 whole entry): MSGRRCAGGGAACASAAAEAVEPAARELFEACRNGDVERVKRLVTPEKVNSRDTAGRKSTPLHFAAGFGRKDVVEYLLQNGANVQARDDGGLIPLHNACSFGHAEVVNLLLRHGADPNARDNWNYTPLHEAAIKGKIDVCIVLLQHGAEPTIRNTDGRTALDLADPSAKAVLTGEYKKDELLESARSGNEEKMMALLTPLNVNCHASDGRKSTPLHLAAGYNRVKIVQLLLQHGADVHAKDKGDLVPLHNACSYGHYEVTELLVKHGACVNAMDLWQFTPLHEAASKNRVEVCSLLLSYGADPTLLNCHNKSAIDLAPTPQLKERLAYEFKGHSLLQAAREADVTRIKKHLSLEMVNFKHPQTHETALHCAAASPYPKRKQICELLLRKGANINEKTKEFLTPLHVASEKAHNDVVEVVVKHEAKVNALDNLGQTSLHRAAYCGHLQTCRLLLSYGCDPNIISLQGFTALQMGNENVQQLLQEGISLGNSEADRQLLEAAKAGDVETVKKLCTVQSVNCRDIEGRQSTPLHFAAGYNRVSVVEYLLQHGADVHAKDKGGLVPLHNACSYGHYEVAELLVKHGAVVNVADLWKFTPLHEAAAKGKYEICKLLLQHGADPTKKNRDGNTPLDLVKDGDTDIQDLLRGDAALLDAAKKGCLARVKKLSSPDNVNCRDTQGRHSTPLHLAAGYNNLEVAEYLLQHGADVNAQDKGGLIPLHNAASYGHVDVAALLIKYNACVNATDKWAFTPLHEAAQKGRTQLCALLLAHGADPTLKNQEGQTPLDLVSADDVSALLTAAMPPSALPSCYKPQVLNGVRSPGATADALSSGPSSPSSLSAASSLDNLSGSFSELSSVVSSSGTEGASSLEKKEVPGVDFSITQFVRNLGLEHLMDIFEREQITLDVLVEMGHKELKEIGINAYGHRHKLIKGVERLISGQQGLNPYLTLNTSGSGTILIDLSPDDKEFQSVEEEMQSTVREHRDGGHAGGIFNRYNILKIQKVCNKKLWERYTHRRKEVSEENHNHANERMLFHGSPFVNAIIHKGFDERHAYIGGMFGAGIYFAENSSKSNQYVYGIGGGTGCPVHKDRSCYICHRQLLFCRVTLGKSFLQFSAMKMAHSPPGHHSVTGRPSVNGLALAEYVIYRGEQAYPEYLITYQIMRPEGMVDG

O=C(N[C@H]1C[C@H](c2nnc(-c3nccs3)n2-c2ccc(Cl)s2)C1)c1ccnc2cccnc12 [Example 78, N-((1r,3r)-3-(4-(5-chlorothiophen-2-yl)-5-(thiazol-2-yl)-4H-1,2,4-triazol-3-yl)cyclobutyl)-1,5-naphthridine-4-carboxamide]
pIC50 [1, 3]: 8.70 | pIC50 [2, 4]: 8.96

O=C(N[C@H]1C[C@H](c2nnc(-c3nccs3)n2-c2ccc(Cl)s2)C1)c1ccccn1 [Example 79, N-((1r,3r)-3-(4-(5-chlorothiophen-2-yl)-5-(thiazol-2-yl)-4H-1,2,4-triazol-3-yl)cyclobutyl)picolinamide]
pIC50 [1, 3]: 7.57 | pIC50 [2, 4]: 6.85

CCOc1ccc(-c2nnc([C@H]3C[C@H](NC(=O)c4ccccn4)C3)n2-c2ccc(C)s2)nc1 [Example 81, N-((1r,3r)-3-(5-(5-ethoxypyridin-2-yl)-4-(5-methylthiophen-2-yl)-4H-1,2,4-triazol-3-yl)cyclobutyl)picolinamide]
pIC50 [1, 3]: 8.34 | pIC50 [2, 5]: 7.43

CCOc1ccc(-c2nnc([C@H]3C[C@H](NC(=O)c4ccnc5cccnc45)C3)n2-c2ccc(C)s2)nc1 [Example 82, N-((1r,3r)-3-(5-(5-ethoxypyridin-2-yl)-4-(5-methylthiophen-2-yl)-4H-1,2,4-triazol-3-yl)cyclobutyl)-1,5-naphthyridine-4-carboxamide]
pIC50 [1, 3]: 9.14 | pIC50 [2, 5]: 9.09

CCOc1ccc(-c2nnc([C@H]3C[C@H](NC(=O)c4cccc5cccnc45)C3)n2-c2ccc(C)s2)nc1 [Example 83, N-((1r,3r)-3-(5-(5-ethoxypyridin-2-yl)-4-(5-methylthiophen-2-yl)-4H-1,2,4-triazol-3-yl)cyclobutyl)quinoline-8-carboxamide]
pIC50 [1, 3]: 8.62 | pIC50 [2, 5]: 9.00

CCOc1ccc(-c2nnc([C@H]3C[C@H](NC(=O)c4ccnc5cc(F)cnc45)C3)n2-c2ccc(C)s2)nc1 [Example 84, N-((1r,3r)-3-(5-(5-ethoxypyridin-2-yl)-4-(5-methylthiophen-2-yl)-4H-1,2,4-triazol-3-yl)cyclobutyl)-7-fluoro-1,5-naphthyridine-4-carboxamide]
pIC50 [1, 3]: 8.80 | pIC50 [2, 5]: 9.00

CCOc1ccc(-c2nnc(C34CC(NC(=O)c5ccnc6cc(F)cnc56)(C3)C4)n2-c2ccc(C)s2)nc1 [Example 86, N-(3-(5-(5-ethoxypyridin-2-yl)-4-(5-methylthiophen-2-yl)-4H-1,2,4-triazol-3-yl)bicyclo[1.1.1]pentan-1-yl)-7-fluoro-1,5-naphthyridine-4-carboxamide]
pIC50 [1, 3]: 8.66 | pIC50 [2, 4]: 8.77

Cc1ccc(-n2c(-c3nccs3)nnc2[C@H]2C[C@H](NC(=O)c3ccccn3)C2)s1 [Example 88, N-((1r,3r)-3-(4-(5-methylthiophen-2-yl)-5-(thiazol-2-yl)-4H-1,2,4-triazol-3-yl)cyclobutyl)picolinamide]
pIC50 [1, 3]: 7.33 | pIC50 [2, 4]: 7.03

Cc1ccc(-n2c(-c3nccs3)nnc2[C@H]2C[C@H](NC(=O)c3ccnc4cccnc34)C2)s1 [Example 89, N-((1r,3r)-3-(4-(5-methylthiophen-2-yl)-5-(thiazol-2-yl)-4H-1,2,4-triazol-3-yl)cyclobutyl)-1,5-naphthyridine-4-carboxamide]
pIC50 [1, 3]: 8.57 | pIC50 [2, 4]: 8.62

O=C(N[C@H]1C[C@H](c2nnc(-c3cnccn3)n2-c2ccccc2F)C1)c1ccccn1 [Example 91, N-((1S,3r)-3-(4-(2-fluorophenyl)-5-(pyrazin-2-yl)-4H-1,2,4-triazol-3-yl)cyclobutyl)picolinamide]
pIC50 [1, 3]: 6.55 | pIC50 [2, 5]: 6.45

[2H]C([2H])([2H])C([2H])([2H])Oc1ccc(-c2nnc([C@H]3C[C@H](NC(=O)c4ccnc5cc(F)cnc45)C3)n2-c2ccccc2F)nc1 [Example 94, N-((1S,3r)-3-(5-(5-(ethoxy-d5)pyridin-2-yl)-4-(2-fluorophenyl)-4H-1,2,4-triazol-3-yl)cyclobutyl)-7-fluoro-1,5-naphthyridine-4-carboxamide]
pIC50 [1]: 8.57 | pIC50 ([2]; Homo sapiens, HEK293; read-out: Cellular IC50 HEK293): 9.35
